{"source": "patent US8987167B2", "about": "“Low volatile amine salts of anionic pesticides” (BASF SE, priority 2009, dated 2015)", "key": {"[1]": {"assay": "Volatility determined by TGA (thermal gravimetric analysis)", "format": "physicochemical", "procedure": "The volatility of the aqueous solutions of dicamba (480 g/l) or 2,4-D (250 g/l) as prepared in Example 1 was determined by analyzing the wt % loss per minute as calculated by the slope between 400 min and 1200 min of a TGA (thermal gravimetric analysis) analysis. The measurement conditions on a TA Instrument TGA Q50 were as follows: Pan type: Platinum; sample size 25 μl leveling uniformly on pan surface, balance purge flow 40 ml/min; sample purge flow 60 ml/min; temperature procedure: Start at 20° C., ramp 10° C./min to 100° C., then isothermal for 1200 min.\nThe volatility of the aqueous solutions of glyphosate salts as prepared in Example 6 was determined by analyzing the wt % loss per minute as described in Example 3."}, "[2]": {"conditions": "pH 7"}, "[3]": {"conditions": "30% humidity; for Volatility after 2 weeks (wt % loss) / Volatility after 4 weeks (wt % loss): Petri dish, 480 g/l solution diluted 1:50, 50° C., forced air flow, loss of dicamba acid by HPLC", "procedure": "A dicamba sample of the aqueous solutions of dicamba (480 g/l) as prepared in Example 1 (Table 1, entry 2) was diluted with distilled water in a ratio of 1:50. To help spreading of the samples uniformly on the surface of the plate, Silwet L-77 was added (0.1 wt %). A total of 300 μl of this diluted sample was applied per Petri dish (diameter 5 cm). The dishes were kept at an environment chamber (Barnstead Environ-Cab Lab-line 680A) with forced air flow (air vent out) up to one month at 50° C. and 30% humidity. Afterwards the plates were extracted with acetic acid/methanol and the pesticide quantified by HPLC (Columbus C18 column) to determine the volatile loss of dicamba acid."}, "[4]": {"conditions": "Dicamba salts, 480 g/l, TGA, normalized, dicamba acid = 100.0"}, "[5]": {"conditions": "Dicamba salts, aqueous solution 480 g/l, TGA isothermal at 100° C., slope between 400 min and 1200 min"}, "[6]": {"conditions": "soybean injury (epinasty and stunting) 14 days after 24 h vapour exposure to Petri dishes treated with 4480 g active ingredient per ha, normalized to 30% for the 2-(-aminoethoxy)ethanol salt"}, "[7]": {"conditions": "2,4-D salts, 250 g/l, TGA, normed, dimethylamine salt = 100.0"}, "[8]": {"conditions": "2,4-D salts, aqueous solution 250 g/l, TGA isothermal at 100° C., slope between 400 min and 1200 min"}, "[9]": {"conditions": "Glyphosate salts, aqueous solution 480 g/l, TGA"}}, "note": "Like-named read-outs stand apart in the source and are kept apart here.", "data": [{"compound": "COc1c(Cl)ccc(Cl)c1C(=O)O.NCCCN1CCOCC1", "note": "[aminopropylmorpholine (APM) salt of dicamba, reference compound]", "values": [{"measurement": "Volatility expected for a concentration of 480 g/l", "setting": "[1]; dicamba salt, 480 g/l (solution could not be prepared), compared with 0.0021 wt % loss per min at 300 g/l", "value": "expected to be higher"}, {"measurement": "Volatility (wt % loss per min)", "setting": "[1]; dicamba salt, aqueous solution 300 g/l, TGA", "value": 0.0021, "unit": "wt % loss per min"}, {"measurement": "solubility in water", "setting": "[2]", "value": "≤ 300", "unit": "mg/mL"}]}, {"compound": "COc1c(Cl)ccc(Cl)c1C(=O)O", "note": "[Dicamba acid, dicamba, reference compound]", "values": [{"measurement": "Volatility (normalized)", "setting": "[1]; [4]", "value": 100.0}, {"measurement": "Volatility (wt % loss per min)", "setting": "[1]; [5]", "value": 0.060, "unit": "wt % loss per min"}, {"measurement": "Injury (%)", "setting": "soybean plants; [6]", "value": 67, "unit": "%"}]}, {"compound": "CC1(C)CC(N)CC(C)(CN)C1.COc1c(Cl)ccc(Cl)c1C(=O)O", "note": "[Dicamba salt: Isophorone diamine]", "values": [{"measurement": "Volatility (normalized)", "setting": "[1]", "value": 0.4}, {"measurement": "Volatility (wt % loss per min)", "setting": "[1]; [5]", "value": 0.0002, "unit": "wt % loss per min"}, {"measurement": "Injury (%)", "setting": "soybean plants; [6]", "value": 19, "unit": "%"}]}, {"compound": "CNC.COc1c(Cl)ccc(Cl)c1C(=O)O", "note": "[Dicamba salt: Dimethylamine, dicamba dimethylamine salt, reference compound]", "values": [{"measurement": "Volatility (normalized)", "setting": "[1]", "value": 17.8}, {"measurement": "Volatility (wt % loss per min)", "setting": "[1]", "value": 0.011, "unit": "wt % loss per min"}, {"measurement": "Volatility after 2 weeks (wt % loss)", "setting": "[3]", "value": 98.7, "unit": "wt % loss"}, {"measurement": "Volatility after 4 weeks (wt % loss)", "setting": "[3]", "value": 100, "unit": "wt % loss"}, {"measurement": "Injury (%)", "setting": "soybean plants; in vivo", "value": 48, "unit": "%"}]}, {"compound": "NCCNCCO.O=C(O)COc1ccc(Cl)cc1Cl", "note": "[2,4-D salt: Aminoethylethanolamine]", "values": [{"measurement": "Volatility (normed)", "setting": "[1]; [7]", "value": 35.7}, {"measurement": "Volatility (wt % loss per min)", "setting": "[1]; [8]", "value": 0.002, "unit": "wt % loss per min"}]}, {"compound": "COc1c(Cl)ccc(Cl)c1C(=O)O.NCCN1CCNCC1", "note": "[Dicamba salt: Aminoethylpiperazine]", "values": [{"measurement": "Volatility (normalized)", "setting": "[1]; [4]", "value": 0.4}, {"measurement": "Volatility (wt % loss per min)", "setting": "[1]; [5]", "value": 0.0002, "unit": "wt % loss per min"}, {"measurement": "Injury (%)", "setting": "soybean plants; [6]", "value": 19, "unit": "%"}]}, {"compound": "CN(CCCN)CCCN.O=C(O)CNCP(=O)(O)O", "values": [{"measurement": "Volatility (wt % loss per min)", "setting": "[1]", "value": 0.002, "unit": "wt % loss per min"}]}, {"compound": "CN(CCCN)CCCN.COc1c(Cl)ccc(Cl)c1C(=O)O", "values": [{"measurement": "Volatility (normalized)", "setting": "[1]", "value": 0.5}, {"measurement": "Volatility (wt % loss per min)", "setting": "[1]", "value": 0.0003, "unit": "wt % loss per min"}, {"measurement": "Injury (%)", "setting": "soybean plants; in vivo", "value": 7, "unit": "%"}]}, {"compound": "COc1c(Cl)ccc(Cl)c1C(=O)O.NCCOCCO", "note": "[Dicamba salt: 2-(-Aminoethoxy)ethanol, dicamba 2-(-Aminoethoxy)ethanol salt, reference compound]", "values": [{"measurement": "Volatility (normalized)", "setting": "[1]; [4]", "value": 5.4}, {"measurement": "Volatility (wt % loss per min)", "setting": "[1]; [5]", "value": 0.0032, "unit": "wt % loss per min"}, {"measurement": "Volatility after 2 weeks (wt % loss)", "setting": "[3]", "value": 29.3, "unit": "wt % loss"}, {"measurement": "Volatility after 4 weeks (wt % loss)", "setting": "[3]", "value": 57.0, "unit": "wt % loss"}, {"measurement": "Injury (%)", "setting": "soybean plants; [6]", "value": 30, "unit": "%"}]}, {"compound": "CN(C)CCCNCCCN(C)C.O=C(O)COc1ccc(Cl)cc1Cl", "note": "[2,4-D salt: Jeffcat ® Z-130]", "values": [{"measurement": "Volatility (normed)", "setting": "[1]; [7]", "value": 14.8}, {"measurement": "Volatility (wt % loss per min)", "setting": "[1]; [8]", "value": 0.0008, "unit": "wt % loss per min"}]}, {"compound": "COc1c(Cl)ccc(Cl)c1C(=O)O.NCCNCCO", "note": "[Dicamba salt: Aminoethylethanolamine, aminoethylethanolamine salt of dicamba]", "values": [{"measurement": "Volatility (normalized)", "setting": "[1]; [4]", "value": 3.1}, {"measurement": "Volatility (wt % loss per min)", "setting": "[1]; [5]", "value": 0.0018, "unit": "wt % loss per min"}, {"measurement": "volatility compared to commercial dicamba salt formulations (Petri dish)", "setting": "[3]; 50° C., up to one month", "value": "reduced volatility compared to commercial dicamba salt formulations"}, {"measurement": "Volatility after 2 weeks (wt % loss)", "setting": "[3]", "value": 6.2, "unit": "wt % loss"}, {"measurement": "Volatility after 4 weeks (wt % loss)", "setting": "[3]", "value": 20.6, "unit": "wt % loss"}, {"measurement": "Injury (%)", "setting": "soybean plants; [6]", "value": 5, "unit": "%"}]}, {"compound": "NCCNCCN.O=C(O)CNCP(=O)(O)O", "note": "[Glyphosate salt: Diethylenetriamine, glyphosate diethylenetriamine salt, reference compound]", "values": [{"measurement": "Volatility (wt % loss per min)", "setting": "[1]; [9]", "value": 0.002, "unit": "wt % loss per min"}]}, {"compound": "NCCN1CCNCC1.O=C(O)CNCP(=O)(O)O", "note": "[Glyphosate salt: Aminoethylpiperazine]", "values": [{"measurement": "Volatility (wt % loss per min)", "setting": "[1]; [9]", "value": 0.002, "unit": "wt % loss per min"}]}, {"compound": "CC1(C)CC(N)CC(C)(CN)C1.O=C(O)CNCP(=O)(O)O", "note": "(stereo not drawn) [Glyphosate salt: Isophorone diamine]", "values": [{"measurement": "Volatility (wt % loss per min)", "setting": "[1]; [9]", "value": 0.002, "unit": "wt % loss per min"}]}, {"compound": "COc1c(Cl)ccc(Cl)c1C(=O)O.NCCNCCN", "note": "[Dicamba salt: Diethylenetriamine]", "values": [{"measurement": "Volatility (normalized)", "setting": "[1]; [4]", "value": 0.7}, {"measurement": "Volatility (wt % loss per min)", "setting": "[1]; [5]", "value": 0.0004, "unit": "wt % loss per min"}, {"measurement": "Injury (%)", "setting": "soybean plants; [6]", "value": 14, "unit": "%"}]}, {"compound": "CN(C)CCCN(C)CCCN(C)C.COc1c(Cl)ccc(Cl)c1C(=O)O", "note": "[Dicamba salt: Jeffcat ZR-40]", "values": [{"measurement": "Volatility (normalized)", "setting": "[1]; [4]", "value": 5.0}, {"measurement": "Volatility (wt % loss per min)", "setting": "[1]; [5]", "value": 0.0030, "unit": "wt % loss per min"}]}, {"compound": "CNC.O=C(O)COc1ccc(Cl)cc1Cl", "note": "[2,4-D salt: Dimethylamine, reference compound]", "values": [{"measurement": "Volatility (normed)", "setting": "[1]", "value": 100.0}, {"measurement": "Volatility (wt % loss per min)", "setting": "[1]", "value": 0.006, "unit": "wt % loss per min"}]}, {"compound": "CN(C)CCCNCCCN(C)C.COc1c(Cl)ccc(Cl)c1C(=O)O", "note": "[Dicamba salt: Jeffcat ® Z-130]", "values": [{"measurement": "Volatility (normalized)", "setting": "[1]; [4]", "value": 2.9}, {"measurement": "Volatility (wt % loss per min)", "setting": "[1]; [5]", "value": 0.0017, "unit": "wt % loss per min"}, {"measurement": "Injury (%)", "setting": "soybean plants; [6]", "value": 5, "unit": "%"}]}, {"compound": "NCCNCCN.O=C(O)COc1ccc(Cl)cc1Cl", "note": "[2,4-D salt: Diethylenetriamine]", "values": [{"measurement": "Volatility (normed)", "setting": "[1]; [7]", "value": 13.7}, {"measurement": "Volatility (wt % loss per min)", "setting": "[1]; [8]", "value": 0.0008, "unit": "wt % loss per min"}]}]}
